Experimental data taken from ChEMBL document CHEMBL6153132 (J Med Chem, 2025).
Calls of active or inactive are those of the source. No cut-off for these calls is given here.

Assays:
CAL-27 [1] = experiment: Induction of apoptosis in human CAL-27 cells assessed as increase in BIM expression at 0.5 uM incubated for 48 hrs by Western blot analysis; type: functional, cell-based
Cal27CisR [2] = experiment: Induction of DNA damage in human Cal27CisR cells assessed as gamma-H2AX accumulation at 0.5 uM in presence of cisplatin by Western blot analysis; type: functional, cell-based
[3] = Metabolic stability in human liver microsome assessed as half life; type: ADME, microsomes; details: microsomes
A2780 [4] = experiment: Induction of cell cycle arrest in human A2780 cells assessed as increase in accumulation of cells at subG1 phase; type: functional, cell-based
Cal27CisR [5] = experiment: Induction of DNA damage in human Cal27CisR cells assessed as gamma-H2AX accumulation at 0.5 uM by Western blot analysis; type: functional, cell-based
[6] = molecular target: T1, Interstitial collagenase (Homo sapiens) (UniProt P03956); experiment: Inhibition of MMP1 (unknown origin) at 10 uM relative to control
T1 sequence (whole entry): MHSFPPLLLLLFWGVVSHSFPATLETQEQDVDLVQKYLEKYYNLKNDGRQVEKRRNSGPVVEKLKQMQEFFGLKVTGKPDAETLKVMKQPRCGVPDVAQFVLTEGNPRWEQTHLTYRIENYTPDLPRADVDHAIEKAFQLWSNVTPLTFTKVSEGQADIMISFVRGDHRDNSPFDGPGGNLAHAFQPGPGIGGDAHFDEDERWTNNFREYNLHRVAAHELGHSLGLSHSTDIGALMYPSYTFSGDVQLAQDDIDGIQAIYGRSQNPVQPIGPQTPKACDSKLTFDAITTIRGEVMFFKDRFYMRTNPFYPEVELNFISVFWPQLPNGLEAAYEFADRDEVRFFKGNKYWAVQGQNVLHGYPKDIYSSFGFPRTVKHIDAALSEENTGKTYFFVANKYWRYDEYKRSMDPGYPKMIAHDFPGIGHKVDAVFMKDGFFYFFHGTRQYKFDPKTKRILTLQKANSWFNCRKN

A2780 [7] = experiment: cells; details: Homo sapiens
cells [8] = details: Homo sapiens, Cal27CisR, 72 h
HL-60 = experiment: cells; details: Homo sapiens, HL-60, 72 h
[9] = molecular target: Stromelysin-1 (Homo sapiens) (UniProt P08254); experiment: Inhibition of MMP3 (unknown origin) at 10 uM relative to control
[10] = Metabolic stability in human liver microsome assessed as intrinsic clearance; type: ADME; details: microsomes
A2780 [11] = experiment: Induction of cell cycle arrest in human A2780 cells assessed as increase in accumulation of cells at subG1 phase 0.5 to 1 uM; type: functional, cell-based; details: dose 0.5-1 µM
[12] = molecular target: 72 kDa type IV collagenase (Homo sapiens) (UniProt P08253); experiment: Inhibition of MMP2 (unknown origin) at 10 uM relative to control
[13] = molecular target: Glutaminyl-peptide cyclotransferase (Homo sapiens) (UniProt Q16769); experiment: Inhibition of glutaminyl cyclase (unknown origin) at 10 uM relative to control
CAL-27 [14] = experiment: cells; details: Homo sapiens, CAL-27, 72 h
A2780cisR = experiment: cells; details: Homo sapiens
CAL-27 [15] = experiment: Induction of DNA damage in human CAL-27 cells assessed as gamma-H2AX accumulation at 0.5 uM by Western blot analysis; type: functional, cell-based
CAL-27 [16] = experiment: Induction of apoptosis in human CAL-27 cells assessed as increase in BIM expression at 0.5 uM incubated for 48 hrs in presence of cisplatin by Western blot analysis; type: functional, cell-based
CAL-27 [17] = experiment: Anti-apoptotic activity in human CAL-27 cells assessed as increase in BCL-2 expression at 0.5 uM incubated for 48 hrs by Western blot analysis; type: functional, cell-based
CAL-27 [18] = experiment: Induction of DNA damage in human CAL-27 cells assessed as gamma-H2AX accumulation at 0.5 uM in presence of cisplatin by Western blot analysis; type: functional, cell-based
[19] = molecular target: Matrix metalloproteinase-9 (Homo sapiens) (UniProt P14780); experiment: Inhibition of MMP9 (unknown origin) at 10 uM relative to control
CAL-27 [20] = experiment: Anti-apoptotic activity in human CAL-27 cells assessed as increase in survivin expression at 0.5 uM incubated for 48 hrs by Western blot analysis; type: functional, cell-based
CAL-27 [21] = experiment: Anti-apoptotic activity in human CAL-27 cells assessed as increase in BCL-2 expression at 0.5 uM incubated for 48 hrs in presence of cisplatin by Western blot analysis; type: functional, cell-based
[22] = Lipophilicity, logD of compound at pH 7.4; type: physicochemical; details: buffer
[23] = molecular target: Collagenase 3 (Homo sapiens) (UniProt P45452); experiment: Inhibition of MMP13 (unknown origin) at 10 uM relative to control
cells [24] = details: Homo sapiens, Cal27CisR
CAL-27 [25] = experiment: Anti-apoptotic activity in human CAL-27 cells assessed as increase in survivin expression at 0.5 uM incubated for 48 hrs in presence of cisplatin by Western blot analysis; type: functional, cell-based

Chain of Stromelysin-1 (Homo sapiens) (P08254 100-477 limits assumed): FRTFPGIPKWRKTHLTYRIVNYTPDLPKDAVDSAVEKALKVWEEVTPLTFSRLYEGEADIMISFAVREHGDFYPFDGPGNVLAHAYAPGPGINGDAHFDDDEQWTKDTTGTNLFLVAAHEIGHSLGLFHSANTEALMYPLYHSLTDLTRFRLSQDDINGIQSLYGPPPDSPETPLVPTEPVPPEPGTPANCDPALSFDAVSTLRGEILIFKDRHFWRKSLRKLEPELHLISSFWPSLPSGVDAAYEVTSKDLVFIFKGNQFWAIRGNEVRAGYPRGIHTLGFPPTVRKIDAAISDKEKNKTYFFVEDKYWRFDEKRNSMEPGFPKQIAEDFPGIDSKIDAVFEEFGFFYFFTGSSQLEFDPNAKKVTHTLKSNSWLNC
Chain of Glutaminyl-peptide cyclotransferase (Homo sapiens) (Q16769 29-361 limits assumed): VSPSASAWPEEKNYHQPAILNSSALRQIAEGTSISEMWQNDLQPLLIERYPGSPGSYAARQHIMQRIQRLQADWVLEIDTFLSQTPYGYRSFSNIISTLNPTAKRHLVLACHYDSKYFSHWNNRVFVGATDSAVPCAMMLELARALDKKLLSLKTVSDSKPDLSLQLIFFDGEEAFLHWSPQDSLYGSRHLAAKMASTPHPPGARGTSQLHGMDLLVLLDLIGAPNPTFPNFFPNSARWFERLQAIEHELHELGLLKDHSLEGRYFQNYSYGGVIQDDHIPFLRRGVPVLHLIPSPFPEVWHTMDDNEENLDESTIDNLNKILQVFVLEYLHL
Chain of 72 kDa type IV collagenase (Homo sapiens) (P08253 110-660 limits assumed): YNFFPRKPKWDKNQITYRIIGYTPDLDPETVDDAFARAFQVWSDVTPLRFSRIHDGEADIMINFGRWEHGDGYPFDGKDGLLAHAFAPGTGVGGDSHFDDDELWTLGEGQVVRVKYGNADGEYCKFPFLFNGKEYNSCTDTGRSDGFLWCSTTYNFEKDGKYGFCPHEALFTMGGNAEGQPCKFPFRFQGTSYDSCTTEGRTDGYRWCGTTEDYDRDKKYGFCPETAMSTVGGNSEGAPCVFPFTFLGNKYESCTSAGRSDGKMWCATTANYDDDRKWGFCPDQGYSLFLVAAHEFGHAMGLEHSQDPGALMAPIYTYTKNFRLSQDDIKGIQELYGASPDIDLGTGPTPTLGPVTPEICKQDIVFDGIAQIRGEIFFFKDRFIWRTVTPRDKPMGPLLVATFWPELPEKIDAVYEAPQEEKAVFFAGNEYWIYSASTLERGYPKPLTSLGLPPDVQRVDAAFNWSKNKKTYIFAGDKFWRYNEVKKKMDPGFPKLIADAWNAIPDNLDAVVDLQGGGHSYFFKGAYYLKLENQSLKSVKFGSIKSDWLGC
Chain of Matrix metalloproteinase-9 (Homo sapiens) (P14780 whole entry): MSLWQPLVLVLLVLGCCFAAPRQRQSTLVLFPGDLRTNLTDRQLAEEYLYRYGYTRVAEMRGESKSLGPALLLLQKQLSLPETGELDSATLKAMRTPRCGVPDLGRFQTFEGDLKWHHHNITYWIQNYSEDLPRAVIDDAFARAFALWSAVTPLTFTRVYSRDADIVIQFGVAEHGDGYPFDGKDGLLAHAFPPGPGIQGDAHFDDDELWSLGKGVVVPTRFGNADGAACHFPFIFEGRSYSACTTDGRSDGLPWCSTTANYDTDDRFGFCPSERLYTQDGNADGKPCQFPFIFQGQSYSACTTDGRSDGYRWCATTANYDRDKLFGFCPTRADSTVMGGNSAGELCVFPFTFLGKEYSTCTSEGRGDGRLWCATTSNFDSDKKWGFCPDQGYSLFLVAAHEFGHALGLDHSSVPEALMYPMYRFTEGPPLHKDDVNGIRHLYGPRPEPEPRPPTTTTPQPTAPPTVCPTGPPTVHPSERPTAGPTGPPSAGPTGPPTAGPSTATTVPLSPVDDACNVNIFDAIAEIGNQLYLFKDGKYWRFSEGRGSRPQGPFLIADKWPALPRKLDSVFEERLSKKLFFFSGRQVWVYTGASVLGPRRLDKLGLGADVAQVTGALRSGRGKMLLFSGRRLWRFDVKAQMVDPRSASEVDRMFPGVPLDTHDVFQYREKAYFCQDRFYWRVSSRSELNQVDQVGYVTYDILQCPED

- t1/2 [3]: 33.93 min
- inhibition [6]: inactive
- IC50 (A2780 [7]): 3.5 µM
- IC50 (cells [8]): 2.23 µM
- IC50 (HL-60): 0.969 µM
- inhibition [9]: inactive
- CLH [10]: 40.9 µL/min/mg
- inhibition [12]: inactive
- inhibition [13]: inactive
- IC50 (CAL-27 [14]): 1.47 µM
- IC50 (A2780cisR): 16 µM
- inhibition [19]: inactive
- logD [22]: 2.69
- inhibition [23]: inactive
- IC50 (cells [24]): 16.5 µM
Compound: CCNNC(=O)c1ccc(CN(CC(=O)NCc2ccccc2)C(=O)c2ccc(N(C)C)cc2)cc1
- Activity (CAL-27 [1]): Active
- Activity (Cal27CisR [2]): Active
- Activity (A2780 [4]): Active
- Activity (Cal27CisR [5]): Active
- Activity (A2780 [11]): Active
- Activity (CAL-27 [15]): Active
- Activity (CAL-27 [16]): Active
- Activity (CAL-27 [17]): Active
- Activity (CAL-27 [18]): Active
- Activity (CAL-27 [20]): Active
- Activity (CAL-27 [21]): Active
- Activity (CAL-27 [25]): Active
